Test results reported in patent US20210330611A1, “THERAPY FOR NEUROLOGICAL DISEASES/DISORDERS” (priority 2020, published 2021).
Counter-ions that a name gives are not always drawn.

Key:
primary rat microglia [1] = assay: Cell toxicity (dead cells, size <150 μm2) in LPS assay; conditions: primary microglia HTS, LPS stimulation, toxicity = cell size <150 μm2
[2] = system: fibrin- and LPS-induced microglia activation; assay: cells; type: cell-based, rat; conditions: quadrant by fibrin and LPS inhibition in HTS of 1907 compounds
[3] = system: LPS-induced microglia activation; assay: Image-based assay of LPS-induced microglia activation (HTS and dose response); type: cell-based, rat; conditions: primary microglia HTS, LPS stimulation, activation = cell size >800 μm2; for inhibition at 10 µM: Rattus norvegicus, Microglia, 48 h, read-out: LPS % inhibition
[4] = system: fibrin-induced microglia activation; assay: Image-based assay of fibrin-induced microglia activation (HTS and dose response); type: cell-based, rat; conditions: primary microglia HTS, fibrin stimulation, activation = cell size >800 μm2; for inhibition at 10 µM: Rattus norvegicus, Microglia, read-out: Fibrin % inhibition
primary rat microglia [5] = assay: Cell toxicity (dead cells, size <150 μm2) in coated fibrin (cFib) assay; conditions: primary microglia HTS, fibrin stimulation, toxicity = cell size <150 μm2;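 also: share of dead cells sized under 150 µm2 at 10 µM in fibrin-stimulated microglia HTS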

SMILES	LPS % cell toxicity (primary rat microglia [1])	Quadrant (FIG. 5b) [2]	inhibition at 10 µM [3]	inhibition at 10 µM [4]	Fibrin % cell toxicity (primary rat microglia [5])	LPS % inhibition [3]	Fibrin % inhibition [4]
CC(C)[N+](C)(CCC(C(N)=O)(c1ccccc1)c1ccccc1)C(C)C [Isopropamide]	0%	Q4	24%	19%	0%	–	–
O=[N+]([O-])O[C@@H]1CO[C@H]2[C@@H]1OC[C@@H]2O [Isosorbide Mononitrate]	1%	Q4	15%	-17%	0%	–	–
CC(C)CC(N)=O [Isovaleramide]	0%	Q4	1%	-10%	1%	–	–
CC(COc1ccccc1)NC(C)C(O)c1ccc(O)cc1 (centres unmarked) [Isoxsuprine Hydrochloride]	0%	Q4	23%	-13%	0%	–	–
COC(=O)C1=C(C)NC(C)=C(C(=O)OC(C)C)C1c1cccc2nonc12 (centres unmarked) [Isradipine]	0%	Q4	2%	9%	1%	–	–
COc1ccc(C(=O)NCc2ccc(OCCN(C)C)cc2)cc1OC [Itopride, Itopride Hydrochloride]	0%	Q4	–	–	0%	25%	−49%
C=C(C)[C@H]1CN[C@H](C(=O)O)[C@H]1CC(=O)O [Kainic Acid]	0%	Q4	14%	-77%	0%	–	–
CNC1(c2ccccc2Cl)CCCCC1=O (centres unmarked) [Ketamine]	0%	Q4	-2%	-86%	1%	–	–
O=C(c1ccc(F)cc1)C1CCN(CCn2c(=O)[nH]c3ccccc3c2=O)CC1 [Ketanserin Tartrate]	0%	Q4	15%	17%	1%	–	–
O=C(c1ccccc1)c1ccc2n1CCC2C(=O)O (centres unmarked) [Ketorolac]	0%	Q4	26%	15%	0%	–	–
CN1CCC(=C2c3ccccc3CC(=O)c3sccc32)CC1 [Ketotifen]	0%	Q4	15%	1%	1%	–	–
COc1c2occc2c(OC)c2c(=O)cc(C)oc12 [Khellin]	0%	Q4	5%	-16%	0%	–	–
CC[C@H](C)[C@H](N)C(=O)O [L-Isoleucine]	0%	Q4	17%	-35%	0%	–	–
C[C@](N)(Cc1ccc(O)c(O)c1)C(=O)O [L-alpha-methyl Dopa, Methyldopa]	0%	Q4	–	–	0%	15%	4%
OC[C@@H](O)[C@@H](O[C@@H]1O[C@H](CO)[C@H](O)[C@H](O)[C@H]1O)[C@H](O)[C@@H](O)CO [Lacitol]	1%	Q4	–	–	1%	18%	−24%
Nc1nnc(-c2cccc(Cl)c2Cl)c(N)n1 [Lamotrigine]	0%	Q4	12%	-12%	1%	–	–
CC(=O)O[C@H]1C[C@H](O[C@H]2[C@@H](O)C[C@H](O[C@H]3[C@@H](O)C[C@H](O[C@H]4CC[C@@]5(C)[C@H](CC[C@@H]6[C@@H]5C[C@@H](O)[C@]5(C)[C@@H](C7=CC(=O)OC7)CC[C@]65O)C4)O[C@@H]3C)O[C@@H]2C)O[C@H](C)[C@H]1O[C@@H]1O[C@H](CO)[C@@H](O)[C@H](O)[C@H]1O [Lanatoside C]	1%	Q4	–	–	1%	35%	17%
Cc1c(OCC(F)(F)F)ccnc1C[S+]([O-])c1nc2ccccc2[nH]1 (centres unmarked) [Lansoprazole]	0%	Q4	15%	3%	0%	–	–
CO[C@@]1(NC(=O)C(C(=O)O)c2ccc(O)cc2)C(=O)N2C(C(=O)O)=C(CSc3nnnn3C)CO[C@@H]21 (some centres unmarked) [Latamoxef]	0%	Q4	22%	-18%	1%	–	–
CC(C)OC(=O)CCC/C=C\C[C@@H]1[C@@H](CC[C@@H](O)CCc2ccccc2)[C@H](O)C[C@@H]1O [Latanoprost]	0%	Q4	4%	10%	1%	–	–
Cc1oncc1C(=O)Nc1ccc(C(F)(F)F)cc1 [Lefunamide, Leflunomide]	0%	Q4	–	–	0%	10%	−22%
Nc1nc2c(c(=O)[nH]1)N(C=O)C(CNc1ccc(C(=O)N[C@@H](CCC(=O)O)C(=O)O)cc1)CN2 (some centres unmarked) [Leucovorin]	0%	Q4	8%	-29%	1%	–	–
CCNC(=O)[C@@H]1CCCN1C(=O)[C@H](CCCNC(=N)N)NC(=O)[C@H](CC(C)C)NC(=O)[C@@H](CC(C)C)NC(=O)[C@H](Cc1ccc(O)cc1)NC(=O)[C@H](CO)NC(=O)[C@H](Cc1c[nH]c2ccccc12)NC(=O)[C@H](Cc1c[nH]cn1)NC(=O)[C@@H]1CCC(=O)N1 [Leuprolide]	−1%	Q4	–	–	1%	−3%	5%
N[C@H]1CONC1=O [Levcycloserine]	0%	Q4	12%	2%	1%	–	–
CC[C@@H](C(N)=O)N1CCCC1=O [Levetiracetam]	0%	Q4	7%	-24%	1%	–	–
CC(C)(C)NC[C@H](O)COc1cccc2c1CCCC2=O [Levobunolol Hydrochloride]	0%	Q4	–	–	0%	12%	−19%
CC(C)(C)NC[C@H](O)COc1cccc2c1CCCC2=O [Levobunolol]	0%	Q4	–	–	1%	30%	−28%
CCCCN1CCCC[C@H]1C(=O)Nc1c(C)cccc1C [Levobupivacaine]	0%	Q4	-10%	34%	1%	–	–
